Test results reported in the supplement of paper PMC10627819.

How the values were obtained:
S. aureus DSM 20231 [1] = experiment: Bliss interaction score (quartile over a dose matrix) (fitness difference); higher = more antagonism (negative = synergy)
Procedure, shortened: (§1)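 Each plate was normalised to the robust mean of its own no-drug wells, using OD595 at entry into stationary phase, with values capped at 1. This normalised growth is the fitness value. The Bliss score is the difference between observed and product-expected fitness, with single-drug fitness inferred from the combination data and quartiles taken over technical, biological and donor/recipient replicates.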

S. pneumoniae D39V [2] = experiment: as above
Procedure, shortened: as §1

S. aureus Newman [3] = experiment: as above
Procedure, shortened: as §1

B. subtilis 168 [4] = experiment: as above
Procedure, shortened: as §1

S. aureus DSM 20231 [5] = experiment: fitness (endpoint OD595 vs no drug) (fraction); higher = more growth
Procedure, shortened: (§2)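 Background-subtracted growth curves were the basis for fitness, taken as the optical density at entry into stationary phase over the robust mean of no-drug control wells. A cap of 1 was applied. The curves came from OD595 readings every 30 min for 14 h at 37 °C, in 384-well plates seeded at OD595 0.01 with 30 µl, or 55 µl for S. pneumoniae.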

S. pneumoniae D39V [6] = experiment: as above
Procedure, shortened: as §2

S. aureus Newman [7] = experiment: as above
Procedure, shortened: as §2

B. subtilis 168 [8] = experiment: as above
Procedure, shortened: as §2
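For Bliss interaction score (quartile over a dose matrix) in this document: first quartile when negative (synergy) and third quartile when positive (antagonism).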

COc1cccc2c1C(=O)c1c(O)c3c(c(O)c1C2=O)C[C@@](O)(C(=O)CO)C[C@@H]3O[C@H]1C[C@H](N)[C@H](O)[C@H](C)O1 [Doxorubicin] + CN[C@@H]1[C@H](O)[C@H](NC)[C@H]2O[C@@]3(O)C(=O)C[C@@H](C)O[C@H]3O[C@@H]2[C@H]1O [Spectinomycin]
Details | Bliss interaction score
B. subtilis 168 [4] | 0.0605
S. aureus DSM 20231 [1] | -0.0571
S. aureus Newman [3] | -0.0787
S. pneumoniae D39V [2] | 0.0399

fitness
Details | first compound 0.25 µg/mL | first compound 0.5 µg/mL | first compound 0.625 µg/mL | first compound 1 µg/mL | first compound 1.25 µg/mL | first compound 2.5 µg/mL
B. subtilis 168 [8], partner 2 µg/mL | – | – | 0.919 | – | 0.905 | 0.62
B. subtilis 168 [8], partner 4 µg/mL | – | – | 0.965 | – | 0.954 | 0.594
B. subtilis 168 [8], partner 8 µg/mL | – | – | 0.817 | – | 0.88 | 0.615
S. aureus DSM 20231 [5], partner 4 µg/mL | – | – | 0.901 | – | 0.846 | 0.808
S. aureus DSM 20231 [5], partner 8 µg/mL | – | – | 0.882 | – | 0.89 | 0.84
S. aureus DSM 20231 [5], partner 16 µg/mL | – | – | 0.789 | – | 0.824 | 0.736
S. aureus Newman [7], partner 4 µg/mL | – | – | 0.796 | – | 0.754 | 0.71
S. aureus Newman [7], partner 8 µg/mL | – | – | 0.797 | – | 0.762 | 0.681
S. aureus Newman [7], partner 16 µg/mL | – | – | 0.713 | – | 0.623 | 0.577
S. pneumoniae D39V [6], partner 4 µg/mL | 0.908 | 0.938 | – | 0.921 | – | –
S. pneumoniae D39V [6], partner 8 µg/mL | 0.827 | 0.862 | – | 0.838 | – | –
S. pneumoniae D39V [6], partner 16 µg/mL | 0.686 | 0.661 | – | 0.632 | – | –

fitness, one replicate
Details | first compound 0.625 µg/mL | first compound 1.25 µg/mL | first compound 2.5 µg/mL
S. aureus DSM 20231 [5], partner 32 µg/mL | 0.768 | 0.732 | 0.624
S. aureus DSM 20231 [5], partner 64 µg/mL | 0.0549 | 0.0594 | 0.0266
S. aureus Newman [7], partner 32 µg/mL | 0.549 | 0.394 | 0.215
S. aureus Newman [7], partner 64 µg/mL | 0.0592 | 0.0432 | 0.0224

COc1ccc(C[C@H](N)C(=O)N[C@H]2[C@@H](O)[C@H](n3cnc4c(N(C)C)ncnc43)O[C@@H]2CO)cc1 [Puromycin] + Cc1cc(NS(=O)(=O)c2ccc(N)cc2)no1 [Sulfamethoxazol]
Details | Bliss interaction score
B. subtilis 168 [4] | 0.0514
S. aureus DSM 20231 [1] | 0.0554
S. aureus Newman [3] | 0.0386
S. pneumoniae D39V [2] | 0.113

fitness
Details | partner 1 µg/mL | partner 2 µg/mL | partner 4 µg/mL
B. subtilis 168 [8], first compound 0.39 µg/mL | 0.934 | 0.947 | 0.891
B. subtilis 168 [8], first compound 0.78 µg/mL | 0.921 | 0.863 | 0.949
B. subtilis 168 [8], first compound 1.56 µg/mL | 0.968 | 0.888 | 0.941
S. aureus DSM 20231 [5], first compound 0.39 µg/mL | 0.998 | 0.996 | ≥ 1
S. aureus DSM 20231 [5], first compound 0.78 µg/mL | 0.988 | ≥ 1 | 0.995
S. aureus DSM 20231 [5], first compound 1.56 µg/mL | 0.952 | 0.992 | 0.961
S. aureus Newman [7], first compound 0.78 µg/mL | 0.996 | 0.943 | 0.958
S. aureus Newman [7], first compound 1.56 µg/mL | 0.966 | 0.968 | ≥ 1
S. pneumoniae D39V [6], first compound 1 µg/mL | 0.945 | 0.934 | 0.961
S. pneumoniae D39V [6], first compound 2 µg/mL | 0.948 | 0.927 | 0.932
S. pneumoniae D39V [6], first compound 4 µg/mL | 0.799 | 0.807 | 0.947

one replicate
Details | fitness
B. subtilis 168 [8], first compound 0.39 µg/mL, partner 0.5 µg/mL | ≥ 1
B. subtilis 168 [8], first compound 0.78 µg/mL, partner 0.5 µg/mL | 0.996
B. subtilis 168 [8], first compound 1.56 µg/mL, partner 0.5 µg/mL | 0.992
S. aureus DSM 20231 [5], first compound 3.12 µg/mL, partner 1 µg/mL | 0.884
S. aureus DSM 20231 [5], first compound 3.12 µg/mL, partner 2 µg/mL | 0.864
S. aureus DSM 20231 [5], first compound 3.12 µg/mL, partner 4 µg/mL | 0.969
S. aureus DSM 20231 [5], first compound 6.24 µg/mL, partner 1 µg/mL | 0.722
S. aureus DSM 20231 [5], first compound 6.24 µg/mL, partner 2 µg/mL | 0.706
S. aureus DSM 20231 [5], first compound 6.24 µg/mL, partner 4 µg/mL | 0.736
S. aureus Newman [7], first compound 0.39 µg/mL, partner 8 µg/mL | 0.916
S. aureus Newman [7], first compound 0.78 µg/mL, partner 8 µg/mL | 0.931
S. aureus Newman [7], first compound 1.56 µg/mL, partner 8 µg/mL | 0.983
